Results: ChEMBL document CHEMBL1909294, “Translating clinical findings into knowledge in drug safety evaluation--drug induced liver injury prediction system (DILIps)” (PLoS Comput Biol, 2011)

Legend:
Hepatotoxicity [1] = system: Hepatotoxicity;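 as to HepSE cholecystitis: Cholecystitis-related hepatic side effect score drawn from the DILIps (drug-induced liver injury prediction) training data set; call rule not given here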;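 as to HepSE cholelithiasis: hepatic side effect score for cholelithiasis, drawn from the DILIps training data for predicting drug-induced liver injury; call rule not given here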;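 as to HepSE cirrhosis: cirrhosis hepatic side effect score taken from the DILIps (drug-induced liver injury prediction) training set; call rule not given here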;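 as to HepSE elevated liver function tests: hepatic side effect score for raised liver function tests, as recorded in the DILIps training set used for predicting drug-induced liver injury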;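 as to HepSE hepatic necrosis: score of hepatic side effects for hepatic necrosis, drawn from the training data of DILIps, a prediction system for drug-induced liver injury; call rule not given here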;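 as to HepSE hepatomegaly: hepatic side effect score for hepatomegaly, taken from the training set of the DILIps drug-induced liver injury prediction system; call rule not given here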
Hepatotoxicity [2] = system: Hepatotoxicity; remark: listed apart in the source;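 as to HepSE cholecystitis: Cholecystitis-related hepatic side effect score drawn from the DILIps (drug-induced liver injury prediction) training data set; call rule not given here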;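 as to HepSE cholelithiasis: hepatic side effect score for cholelithiasis, drawn from the DILIps training data for predicting drug-induced liver injury; call rule not given here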;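 as to HepSE cirrhosis: cirrhosis hepatic side effect score taken from the DILIps (drug-induced liver injury prediction) training set; call rule not given here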;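 as to HepSE elevated liver function tests: hepatic side effect score for raised liver function tests, as recorded in the DILIps training set used for predicting drug-induced liver injury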;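 as to HepSE hepatic necrosis: score of hepatic side effects for hepatic necrosis, drawn from the training data of DILIps, a prediction system for drug-induced liver injury; call rule not given here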;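 as to HepSE hepatomegaly: hepatic side effect score for hepatomegaly, taken from the training set of the DILIps drug-induced liver injury prediction system; call rule not given here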
Hepatotoxicity [3] = system: Hepatotoxicity; remark: listed apart in the source;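 as to HepSE cholecystitis: Cholecystitis-related hepatic side effect score drawn from the DILIps (drug-induced liver injury prediction) training data set; call rule not given here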;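 as to HepSE cholelithiasis: hepatic side effect score for cholelithiasis, drawn from the DILIps training data for predicting drug-induced liver injury; call rule not given here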;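 as to HepSE cirrhosis: cirrhosis hepatic side effect score taken from the DILIps (drug-induced liver injury prediction) training set; call rule not given here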;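 as to HepSE elevated liver function tests: hepatic side effect score for raised liver function tests, as recorded in the DILIps training set used for predicting drug-induced liver injury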;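 as to HepSE hepatic necrosis: score of hepatic side effects for hepatic necrosis, drawn from the training data of DILIps, a prediction system for drug-induced liver injury; call rule not given here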;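 as to HepSE hepatomegaly: hepatic side effect score for hepatomegaly, taken from the training set of the DILIps drug-induced liver injury prediction system; call rule not given here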
Hepatotoxicity [4] = system: Hepatotoxicity; remark: listed apart in the source;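 as to HepSE cholecystitis: Cholecystitis-related hepatic side effect score drawn from the DILIps (drug-induced liver injury prediction) training data set; call rule not given here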;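 as to HepSE cholelithiasis: hepatic side effect score for cholelithiasis, drawn from the DILIps training data for predicting drug-induced liver injury; call rule not given here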;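 as to HepSE cirrhosis: cirrhosis hepatic side effect score taken from the DILIps (drug-induced liver injury prediction) training set; call rule not given here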;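 as to HepSE elevated liver function tests: hepatic side effect score for raised liver function tests, as recorded in the DILIps training set used for predicting drug-induced liver injury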;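 as to HepSE hepatic necrosis: score of hepatic side effects for hepatic necrosis, drawn from the training data of DILIps, a prediction system for drug-induced liver injury; call rule not given here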
Hepatotoxicity [5] = system: Hepatotoxicity; remark: listed apart in the source
Hepatotoxicity [6] = system: Hepatotoxicity; remark: listed apart in the source
Hepatotoxicity [7] = system: Hepatotoxicity; remark: listed apart in the source
Hepatotoxicity [8] = system: Hepatotoxicity; remark: listed apart in the source
Hepatotoxicity [9] = system: Hepatotoxicity; remark: listed apart in the source
Hepatotoxicity [10] = system: Hepatotoxicity; remark: listed apart in the source
Hepatotoxicity [11] = system: Hepatotoxicity; remark: listed apart in the source
Hepatotoxicity [12] = system: Hepatotoxicity; remark: listed apart in the source
Hepatotoxicity [13] = system: Hepatotoxicity; remark: listed apart in the source
Hepatotoxicity [14] = system: Hepatotoxicity; remark: listed apart in the source

Structure (SMILES)	HepSE_hepatic necrosis (Hepatotoxicity [1])	HepSE_cirrhosis (Hepatotoxicity [2])	HepSE_cholelithiasis (Hepatotoxicity [3])	HepSE_liver fatty (Hepatotoxicity [4])	HepSE_elevated liver function tests (Hepatotoxicity [5])	HepSE_cholecystitis (Hepatotoxicity [6])	HepSE_hepatomegaly (Hepatotoxicity [7])	HepSE_liver function tests abnormal (Hepatotoxicity [8])	HepSE_Combined Scores (Hepatotoxicity [9])	HepSE_jaundice (Hepatotoxicity [10])	HepSE_hepatic failure (Hepatotoxicity [11])	HepSE_hepatitis (Hepatotoxicity [12])	HepSE_liver disease (Hepatotoxicity [13])	HepSE_bilirubinemia (Hepatotoxicity [14])	also measured
C[C@H]1C[C@H]2[C@@H]3CCC4=CC(=O)C=C[C@]4(C)[C@@]3(Cl)[C@@H](O)C[C@]2(C)[C@@]1(O)C(=O)CO [BECLOMETHASONE]	0	0	0	0	0	0	0	0	0	0	0	0	0	0	
CCOC(=O)[C@H](CCc1ccccc1)N[C@H]1CCc2ccccc2N(CC(=O)O)C1=O [BENAZEPRIL]	0	0	0	0	0	0	0	0	2	1	0	1	0	0	
NS(=O)(=O)c1cc2c(cc1C(F)(F)F)NC(Cc1ccccc1)NS2(=O)=O (configuration not stated) [BENDROFLUMETHIAZIDE]	0	0	0	0	0	0	0	0	2	1	0	1	0	0	
O=C(OOC(=O)c1ccccc1)c1ccccc1 [BENZOYL PEROXIDE]	0	0	0	0	0	0	0	0	0	0	0	0	0	0	
CN1[C@@H]2CC[C@H]1C[C@@H](OC(c1ccccc1)c1ccccc1)C2 [BENZTROPINE]	0	0	0	0	0	0	0	0	0	0	0	0	0	0	
CN(C)CCCOc1nn(Cc2ccccc2)c2ccccc12 [BENZYDAMINE]	0	0	0	0	0	0	0	0	0	0	0	0	0	0	
CNCCc1ccccn1 [BETAHISTINE]	0	0	0	0	0	0	0	0	0	0	0	0	0	0	
C[N+](C)(C)CC(=O)O [BETAINE]	0	0	0	0	0	0	0	0	0	0	0	0	0	0	
CC(C)NCC(O)COc1ccc(CCOCC2CC2)cc1 (configuration not stated) [BETAXOLOL]															HepSE_hepatic necrosis (Hepatotoxicity [1]; Liver): 0; HepSE_cirrhosis (Hepatotoxicity [2]; Liver): 0; HepSE_cholelithiasis (Hepatotoxicity [3]; Liver): 0; HepSE_liver fatty (Hepatotoxicity [4]; Liver): 0; HepSE_elevated liver function tests (Hepatotoxicity [5]; Liver): 0; HepSE_cholecystitis (Hepatotoxicity [6]; Liver): 0; HepSE_hepatomegaly (Hepatotoxicity [7]; Liver): 0; HepSE_liver function tests abnormal (Hepatotoxicity [8]; Liver): 0; HepSE_Combined Scores (Hepatotoxicity [9]; Liver): 0; HepSE_jaundice (Hepatotoxicity [10]; Liver): 0; HepSE_hepatic failure (Hepatotoxicity [11]; Liver): 0; HepSE_hepatitis (Hepatotoxicity [12]; Liver): 0; HepSE_liver disease (Hepatotoxicity [13]; Liver): 0; HepSE_bilirubinemia (Hepatotoxicity [14]; Liver): 0
CC(C[N+](C)(C)C)OC(N)=O (configuration not stated) [BETHANECHOL]															HepSE_hepatic necrosis (Hepatotoxicity [1]; Liver): 0; HepSE_cirrhosis (Hepatotoxicity [2]; Liver): 0; HepSE_cholelithiasis (Hepatotoxicity [3]; Liver): 0; HepSE_liver fatty (Hepatotoxicity [4]; Liver): 0; HepSE_elevated liver function tests (Hepatotoxicity [5]; Liver): 0; HepSE_cholecystitis (Hepatotoxicity [6]; Liver): 0; HepSE_hepatomegaly (Hepatotoxicity [7]; Liver): 0; HepSE_liver function tests abnormal (Hepatotoxicity [8]; Liver): 0; HepSE_Combined Scores (Hepatotoxicity [9]; Liver): 0; HepSE_jaundice (Hepatotoxicity [10]; Liver): 0; HepSE_hepatic failure (Hepatotoxicity [11]; Liver): 0; HepSE_hepatitis (Hepatotoxicity [12]; Liver): 0; HepSE_liver disease (Hepatotoxicity [13]; Liver): 0; HepSE_bilirubinemia (Hepatotoxicity [14]; Liver): 0
C=C(c1ccc(C(=O)O)cc1)c1cc2c(cc1C)C(C)(C)CCC2(C)C [BEXAROTENE]	0	0	0	0	0	0	0	0	2	0	1	0	0	1	
CC(C)(Oc1ccc(CCNC(=O)c2ccc(Cl)cc2)cc1)C(=O)O [BEZAFIBRATE]	0	0	1	0	0	0	0	0	1	0	0	0	0	0	
CC(O)(CS(=O)(=O)c1ccc(F)cc1)C(=O)Nc1ccc(C#N)c(C(F)(F)F)c1 (configuration not stated) [BICALUTAMIDE]	0	0	0	0	0	0	0	1	3	1	1	0	0	0	
